This passage reports Kd results from PubChem BioAssay AID624108 (Broad Institute, 2012).

Structures are written as SMILES. Calls of active or inactive are those of the source. The rule behind the calls is not given here.

In the assay the target is Glycogen synthase kinase-3 beta (Homo sapiens) (UniProt P49841). The assay is described as follows: GSK3beta direct binders, dose response, biophysical, surface plasmon resonance, microfluidics, dry powder samples (AID 624108). Particulars: recombinant GSK3beta, surface plasmon resonance binding. On the technique in general: Surface plasmon resonance follows binding to a sensor surface in real time, without labels.
Sequence of Glycogen synthase kinase-3 beta (Homo sapiens) (P49841 whole entry, looked up): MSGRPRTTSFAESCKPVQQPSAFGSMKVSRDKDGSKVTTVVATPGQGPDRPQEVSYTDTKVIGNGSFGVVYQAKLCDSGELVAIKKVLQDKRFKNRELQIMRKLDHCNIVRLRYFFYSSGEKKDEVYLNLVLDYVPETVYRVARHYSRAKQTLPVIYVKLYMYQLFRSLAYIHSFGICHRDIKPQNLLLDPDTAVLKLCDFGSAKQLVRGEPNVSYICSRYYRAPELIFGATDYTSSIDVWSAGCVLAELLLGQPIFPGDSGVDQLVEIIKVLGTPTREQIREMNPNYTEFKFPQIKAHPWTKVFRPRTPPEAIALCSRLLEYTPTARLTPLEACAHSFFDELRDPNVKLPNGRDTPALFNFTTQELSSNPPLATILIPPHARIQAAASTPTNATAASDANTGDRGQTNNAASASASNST
A word on the Kd: it is the free concentration of one partner at which half of the binding sites on the other are occupied at equilibrium, for simple one-to-one binding. For `Cc1[nH]nc2c1[C@H](c1cccs1)C1=C(CC(C)(C)CC1=O)N2`, the Kd was 421 nM. The figure for `Cc1[nH]nc2c1C(c1ccc(Cl)s1)C1=C(CC(C)(C)CC1=O)N2` (configuration not stated) is 520 nM; for `Cc1[nH]nc2c1C(c1ccc(C(F)(F)F)cc1)C1=C(CC(C)(C)CC1=O)N2` (configuration not stated) it is 368 nM. On to `Cc1[nH]nc2c1C(C)(c1ccccc1)C1=C(CC(C)(C)CC1=O)N2` (configuration not stated), for which the Kd is 149 nM.

Turning to `CC1(C)CC(=O)C2=C(C1)Nc1n[nH]c(C(F)(F)F)c1C2c1ccccc1F` (configuration not stated), the Kd was > 5000 nM (inactive).

For the molecule `COc1ccccc1[C@@H]1C2=C(CC(C)(C)CC2=O)Nc2n[nH]c(C(F)(F)F)c21`, the dissociation constant Kd was 31 nM.

On to `Cc1[nH]nc2c1C(C1CC1)C1=C(CC(C)(C)CC1=O)N2` (configuration not stated), for which the Kd was > 5000 nM (inactive). As to `Cc1[nH]nc2c1C(c1ccc(C#N)cc1)C1=C(CC(C)(C)CC1=O)N2` (configuration not stated), the Kd entry is “inactive”. The figure for `COc1ccccc1C1C2=C(CC3(CCCCC3)CC2=O)Nc2n[nH]c(C)c21` (configuration not stated) is > 5000 nM (inactive); for `Cc1[nH]nc2c1C(c1ccsc1)C1=C(CC(C)(C)CC1=O)N2` (configuration not stated) it is 450 nM.

For `COc1ccccc1C1C2=C(CC(C)(C)CC2=O)Nc2n[nH]c(C(C)C)c21` (configuration not stated), the Kd entry was “inactive”. As to `COc1ccccc1C1C2=C(CCC(C)(C)C2=O)Nc2n[nH]c(C)c21` (configuration not stated), the Kd is 305 nM.

Turning to `Cc1ccccc1C1C2=C(CC(C)(C)CC2=O)Nc2n[nH]c(C)c21` (configuration not stated), the Kd was 223 nM. For the molecule `Cc1[nH]nc2c1C(c1ccccn1)C1=C(CC(C)(C)CC1=O)N2` (configuration not stated), the Kd is 390 nM. On to `COc1ccccc1C1C2=C(CCCC2=O)Nc2n[nH]c(C)c21` (configuration not stated), for which the Kd is > 5000 nM (inactive). On to `Cc1[nH]nc2c1C(c1cccc(C#N)c1)C1=C(CC(C)(C)CC1=O)N2` (configuration not stated), for which the Kd was 331 nM. With `Cc1[nH]nc2nc3c(c(-c4cccs4)c12)C(=O)CC(C)(C)C3`, the Kd is 24 nM. The figure for `Cc1[nH]nc2c1C(c1cccc(Cl)c1)C1=C(CC(C)(C)CC1=O)N2` (configuration not stated) is 360 nM; for `Cc1cccc(C2C3=C(CC(C)(C)CC3=O)Nc3n[nH]c(C)c32)c1` (configuration not stated) it is 802 nM; for `COc1ccccc1C1C2=C(CC(C)(C)CC2=O)Nc2ccccc21` (configuration not stated) it is > 5000 nM (inactive). `Cc1[nH]nc2c1C(C1CCCCC1)C1=C(CC(C)(C)CC1=O)N2` (configuration not stated): the Kd was > 5000 nM (inactive). As to `CC1(C)CC(=O)C2=C(C1)Nc1n[nH]c(C(F)(F)F)c1C2c1ccc(F)cc1C(F)(F)F` (configuration not stated), the Kd is 202 nM. Turning to `CC1(C)CC(=O)C2=C(C1)Nc1n[nH]c(C(F)(F)F)c1C2c1cc(F)ccc1F` (configuration not stated), the Kd was 424 nM.

For the molecule `Cc1[nH]nc2c1C(c1ccccc1Br)C1=C(CC(C)(C)CC1=O)N2` (configuration not stated), the dissociation constant Kd is 40 nM. On to `Cc1[nH]nc2c1C(c1ccc3c(c1)OCO3)C1=C(CC(C)(C)CC1=O)N2` (configuration not stated), for which the Kd result is “inactive”. Regarding `Cc1[nH]nc2c1C(c1ccccc1C(F)(F)F)C1=C(CC(C)(C)CC1=O)N2` (configuration not stated), the Kd was 49 nM. As for `COc1ccc(C2C3=C(CC(C)(C)CC3=O)Nc3n[nH]c(C)c32)cc1` (configuration not stated), the Kd entry is “inactive”. For `COc1ccccc1C1C2=C(CC(C)(C)CC2=O)Nc2n[nH]c(C(F)(F)F)c21` (configuration not stated), the Kd is 102 nM. For the molecule `CC1(C)CC(=O)C2=C(C1)Nc1n[nH]c(C(F)(F)F)c1C2c1cc(F)ccc1OC(F)(F)F` (configuration not stated), the Kd was 627 nM. The entry for `Cc1[nH]nc2c1C(c1ccc(F)cc1)C1=C(CC(C)(C)CC1=O)N2` (configuration not stated) is “inactive”. With `CC1(C)CC(=O)C2=C(C1)Nc1n[nH]c(C(F)(F)F)c1C2(C)c1ccccc1` (configuration not stated), the Kd is > 5000 nM (inactive). The figure for `COc1ccccc1/C=C1\C(=O)CC(C)(C)CC1=Nc1cc(C(F)(F)F)[nH]n1` is > 5000 nM (inactive).

In the case of `CCc1[nH]nc2c1C(c1ccccc1OC)C1=C(CC(C)(C)CC1=O)N2` (configuration not stated), the Kd was > 5000 nM (inactive). For `CC1(C)CC(=O)C2=C(C1)Nc1n[nH]c(C(F)(F)F)c1C2c1ccccc1` (configuration not stated), the dissociation constant (Kd) is 113 nM. `Cc1[nH]nc2c1C(c1cccc3nonc13)C1=C(CC(C)(C)CC1=O)N2` (configuration not stated): the Kd was > 5000 nM (inactive).

Take `Cc1[nH]nc2c1C(c1ccc(Cl)cc1)C1=C(CC(C)(C)CC1=O)N2` (configuration not stated): the Kd entry is “inactive”. The result for `COc1ccccc1-c1c2c(nc3n[nH]c(C)c13)CCC2=O` reads > 5000 nM (inactive).

Take `Cc1[nH]nc2c1C(c1ccccc1Cl)C1=C(CC(C)(C)CC1=O)N2` (configuration not stated): the Kd was 890 nM. With `Cc1[nH]nc2nc3c(c(-c4ccccc4)c12)C(=O)CC(C)(C)C3`, the Kd is 13 nM.

In the case of `CC1(C)CC(=O)C2=C(C1)Nc1n[nH]c(C(F)(F)F)c1C2c1c(F)cccc1F` (configuration not stated), the Kd is > 5000 nM (inactive). As for `Cc1[nH]nc2c1C(c1cccnc1)C1=C(CC(C)(C)CC1=O)N2` (configuration not stated), the Kd was 270 nM. In the case of `Cc1[nH]nc2nc3c(cc12)C(=O)CC(C)(C)C3`, the Kd was > 5000 nM (inactive). With `COc1ccccc1C1C2=C(CC(C)(C)CC2=O)Nc2n[nH]c(C)c21` (configuration not stated), the Kd was 60 nM. The result for `CC1(C)CC(=O)C2=C(C1)Nc1n[nH]c(C(F)(F)F)c1C2c1ccccc1C(F)(F)F` (configuration not stated) reads 122 nM; that for `Cc1[nH]nc2c1C(c1ccc(Br)cn1)C1=C(CC(C)(C)CC1=O)N2` (configuration not stated), > 5000 nM (inactive); that for `CC1(C)CC(=O)/C(=C\c2cccc(F)c2C(F)(F)F)C(=Nc2cc(C(F)(F)F)[nH]n2)C1`, 40 nM. For the molecule `Cc1[nH]nc2c1C(c1cccs1)C1C(=O)CC(C)(C)CC1=N2` (configuration not stated), the Kd is 420 nM. With `Cc1[nH]nc2c1C(c1ccn[nH]1)C1=C(CC(C)(C)CC1=O)N2` (configuration not stated), the Kd was > 5000 nM (inactive). On to `CC1(C)CC(=O)C2=C(C1)Nc1n[nH]c(C(F)(F)F)c1C2c1cc(F)ccc1C(F)(F)F` (configuration not stated), for which the Kd is 150 nM. As for `Cc1[nH]nc2c1C(C)C1=C(CC(C)(C)CC1=O)N2` (configuration not stated), the Kd is > 5000 nM (inactive). Consider `CC1(C)CC(=O)C2=C(C1)Nc1n[nH]c(C(F)(F)F)c1C2c1cccc(F)c1C(F)(F)F` (configuration not stated), for which the Kd is 822 nM.

`COc1ccccc1C1C2=C(CC(C)(C)CC2=O)Nc2[nH]ncc21` (configuration not stated): the Kd was 173 nM. `Cc1[nH]nc2c1C(c1ccc(F)cc1Cl)C1=C(CC(C)(C)CC1=O)N2` (configuration not stated): the Kd was > 5000 nM (inactive). The result for `Cc1ccc(C2C3=C(CC(C)(C)CC3=O)Nc3n[nH]c(C)c32)cc1` (configuration not stated) reads “inactive”. In the case of `COc1ccccc1C1C2=C(CC(C)(C)CC2=O)Nc2n[nH]c(C(C)(C)C)c21` (configuration not stated), the Kd is 585 nM.

Consider `COc1ccccc1C1C2=C(CC(C)(C)CC2=O)Nc2onc(C)c21` (configuration not stated), for which the Kd is > 5000 nM (inactive).

For `Cc1[nH]nc2c1[C@@H](c1ccccc1C(F)(F)F)C1=C(CC(C)(C)CC1=O)N2`, the Kd was > 5000 nM (inactive). The figure for `CC1(C)CC(=O)/C(=C\c2ccccc2C(F)(F)F)C(=Nc2cc(C(F)(F)F)[nH]n2)C1` is > 5000 nM (inactive); for `COc1cccc(C2C3=C(CC(C)(C)CC3=O)Nc3n[nH]c(C)c32)c1` (configuration not stated) it is > 5000 nM (inactive).

`COc1ccccc1C1C(C(C)=O)=C(C)Nc2n[nH]c(C)c21` (configuration not stated): the Kd was > 5000 nM (inactive). Take `COc1ccccc1C1C2=C(CC(C)(C)CC2=O)Nc2n[nH]c(-c3ccccc3)c21` (configuration not stated): the Kd entry was “inactive”. The result for `Cc1[nH]nc2c1[C@H](c1ccccc1C(F)(F)F)C1=C(CC(C)(C)CC1=O)N2` reads 15 nM; that for `COc1ccccc1[C@H]1C2=C(CC(C)(C)CC2=O)Nc2n[nH]c(C(F)(F)F)c21`, “inactive”. With `Cc1[nH]nc2c1C(c1cccc(F)c1)C1=C(CC(C)(C)CC1=O)N2` (configuration not stated), the Kd result is “inactive”.

Turning to `Cc1[nH]nc2c1[C@@H](c1cccs1)C1=C(CC(C)(C)CC1=O)N2`, the Kd is > 5000 nM (inactive).

As for `Cc1[nH]nc2c1C(c1cccc(C(F)(F)F)c1)C1=C(CC(C)(C)CC1=O)N2` (configuration not stated), the Kd entry is “inactive”.

In the case of `Cc1[nH]nc2c1C(c1ccccc1C#N)C1=C(CC(C)(C)CC1=O)N2` (configuration not stated), the Kd was > 5000 nM (inactive).
